# Experiments:
# MCF7 = test: Antiproliferative activity of compound was evaluated on MCF-7 cells from human breast adenocarcinoma; type: functional; conditions: read-out: ID50 (the source's name)
# [1] = Antiproliferative activity of compound was evaluated on Molt3 cells from human lymphoblastic leukemia; type: functional; conditions: MOLT-3, read-out: ID50 (the source's name)
# [2] = Antiproliferative activity of compound was evaluated on SupT1 cells from human non-Hodgkin lymphoma; type: functional; conditions: SUP-T1, read-out: ID50 (the source's name)
# Vero [3] = test: The compound was evaluated for cytotoxicity against VERO cells using Lowry's test at a concentration 0.7 uM; type: cell-based; conditions: chlorocebus sabaeus
# [4] = The compound was evaluated for cytotoxicity against VERO cells using Dye test at a concentration 90 uM; type: cell-based; conditions: chlorocebus sabaeus, read-out: Cellular growth
# [5] = The compound was evaluated for cytotoxicity against VERO cells using Dye test at a concentration 0.7 uM; type: cell-based; conditions: chlorocebus sabaeus, read-out: Cellular growth
# Vero [6] = test: The compound was evaluated for cytotoxicity against VERO cells using Lowry's test at a concentration 90 uM; type: cell-based; conditions: chlorocebus sabaeus
# [7] = The compound was evaluated for cytotoxicity against VERO cells using Dye test at a concentration 11.2 uM; type: cell-based; conditions: chlorocebus sabaeus, read-out: Cellular growth
# Vero [8] = test: The compound was evaluated for cytotoxicity against VERO cells using Lowry's test at a concentration 11.2 uM; type: cell-based; conditions: chlorocebus sabaeus
Compound,IC50 (MCF7),IC50 [1],IC50 [2],Protein content (Vero [3]),viability at 90 µM [4],viability at 0.7 µM [5],Protein content (Vero [6]),viability at 11.2 µM [7],Protein content (Vero [8])
CSc1nc2c([nH]1)C(=O)C=C(Br)C2=O,62.8 µM,32.1 µM,5.03 µM,,,,,,
CSc1nc2c([nH]1)C(=O)C=CC2=O,62.6 µM,1.32 µM,2.87 µM,102.9%,73.6%,99.3%,68.9%,101%,86.4%
CSc1nc2c([nH]1)C(=O)C=C(N(C)C)C2=O,> 90 µM,18.3 µM,38 µM,,,,,,
COC1=CC(=O)c2[nH]c(SC)nc2C1=O,36 µM,20.8 µM,5.07 µM,,,,,,
CO[C@@]12[C@H](COC(N)=O)C3=C(C(=O)C(C)=C(N)C3=O)N1C[C@@H]1N[C@@H]12 [MITOMYCIN],42.9 µM,2.66 µM,< 0.7 µM,,,,,,
NC1=CC(=O)c2[nH]c(-c3ccccn3)nc2C1=O,> 90 µM,39.7 µM,29.3 µM,,,,,,
O=C1C(Br)=CC(=O)c2[nH]c(-c3ccccn3)nc21,> 90 µM,7.52 µM,5.57 µM,,,,,,
CSc1nc2c([nH]1)C(=O)C(Br)=C(Br)C2=O,40.3 µM,12 µM,6.26 µM,,,,,,
CSc1nc2c([nH]1)C(=O)/C(=N/CCCl)C=C2O,> 90 µM,30.6 µM,15.3 µM,,,,,,
CN(C)C1=CC(=O)c2[nH]c(-c3ccccn3)nc2C1=O,> 90 µM,22.4 µM,17.4 µM,,,,,,
CSc1nc2c([nH]1)C(=O)C(=N)C=C2O,> 90 µM,60.4 µM,10.8 µM,,,,,,
COC1=CC(=O)c2[nH]c(-c3ccccn3)nc2C1=O,26.4 µM,2.63 µM,2.57 µM,97.2%,16.4%,114%,16.2%,71.2%,81.3%

# Source: ChEMBL document CHEMBL1132744, “Synthesis and antiproliferative activity of some benzimidazole-4,7-dione derivatives” (Bioorg Med Chem Lett, 2000)
